Experimental findings from patent US20240116880A1, “CERTAIN CHEMICAL ENTITIES, COMPOSITIONS, AND METHODS” (NeuPharma, Inc, priority 2020, published 2024) are described below.

This data set in a line: Accelerated and long-term stability tests of Crystalline Form I. Format: physicochemical. The following applies: for Purity: HPLC. Here is the method:
X-ray powder diffraction (XRPD) patterns were obtained on a Shimadzu XRD-6000. A CuK source (=1.54056 angstrom) operating minimally at 40 kV and 30 mA scans each sample between 5 and 50 degrees 2-theta. The step size is 0.02 degrees 2-theta and the scan speed is 1 second per step.
Differential scanning calorimetry analysis was carried out on a TA Instrument DSC unit (METTLER DSC 3). Samples were heated in non-hermetic aluminum pans from ambient to 300° C. at 20 K/min with a nitrogen purge of 50 mL/min.
High-performance liquid chromatography (HPLC) was performed using the following instrument and/or conditions.
Example 8. Stability Tests of Crystalline Form I
Crystalline Form I was not changed after storage at 40° C./75% RH for 6 months, or storage at 25° C./60% RH for 6 months.

The mark [1] stands for this setting: 25° C./60% RH (closed), 0 month.
The mark [2] stands for this setting: 25° C./60% RH (closed), 6 months.
The mark [3] stands for this setting: 40° C./75% RH (closed), 0 month.
[4] abbreviates: 40° C./75% RH (closed), 6 months.

As for `CCCS(=O)(=O)Nc1cc(F)c(F)c(C(=O)c2ccc3ncc(N4CCOCC4)nc3c2)c1F` [Crystalline Form I, N-(2,4,5-trifluoro-3-(3-morpholinoquinoxaline-6-carbonyl)phenyl)propane-1-sulfonamide], the Appearance result under setting [1] was “Yellow powder”, the Appearance result under setting [2] is “Yellow powder”, the Appearance result under setting [3] is “Yellow powder” and the Appearance result under setting [4] was “Yellow powder”. Besides, the DSC reads like this: under setting [1], 186.56 °C; under setting [2], 186.08 °C; under setting [3], 186.56 °C; under setting [4], 186.54 °C. Besides, the XRPD result by setting is: under setting [1], “Form I”; under setting [2], “Form I”; under setting [3], “Form I”; under setting [4], “Form I”. Moreover, the Purity came out at 99.93% under setting [1], 99.92% under setting [2], 99.93% under setting [3] and 99.92% under setting [4]. For the same compound, the “Change of crystalline form after storage” value reads like this: (storage at 25° C./60% RH for 6 months) “not changed”; (storage at 40° C./75% RH for 6 months) “not changed”.
